In patent US20080293664A1, “Non-nucleoside reverse transcriptase inhibitors” (Roche Palo Alto LLC, priority 2007, published 2008):
pIC50: −log10 of the molar value. Counter-ions that a name gives are not always drawn. Like-named read-outs stand apart in the source and are kept apart here.

Key:
[1] = target: HIV-1 Reverse Transcriptase (Human immunodeficiency virus type 1 group M subtype B, UniProt P03366); experiment: HIV-1 Reverse Transcriptase Assay (RNA-dependent DNA polymerase activity, SPA); format: biochemical; conditions: HIV-RT enzyme 1-3 nM, 30° C. for 30 min, 10% DMSO
Procedure: HIV-1 Reverse Transcriptase Assay
RNA-dependent DNA polymerase activity was measured using a biotinylated primer oligonucleotide and tritiated dNTP substrate. Newly synthesized DNA was quantified by capturing the biotinylated primer molecules on streptavidin coated Scintillation Proximity Assay (SPA) beads (Amersham). The sequences of the polymerase assay substrate were: 18nt DNA primer, 5′-Biotin/GTC CCT GTT CGG GCG CCA-3′; 47nt RNA template, 5′-GGGUCUCUCUGGUUAGACCACUCUAGCAGUGGCGCCCGAACAGGGAC-3′. The biotinylated DNA primer was obtained from the Integrated DNA Technologies Inc. and the RNA template was synthesized by Dharmacon. The DNA polymerase assay (final volume 50 μl) contained 32 nM biotinylated DNA primer, 64 nM RNA substrate, dGTP, dCTP, dTTP (each at 5 μM), 103 nM [^3H]-dATP (specific activity=[…]), in 45 mM Tris-HCl, pH 8.0, 45 mM NaCl, 2.7 mM Mg(CH3COO)2, 0.045% Triton X-100 w/v, 0.9 mM EDTA. The reactions contained 5 ul of serial compound dilutions in 100% DMSO for IC50 determination and the final concentrations of DMSO were 10%. Reactions were initiated by the addition of 30 μl of the HIV-RT enzyme (final concentrations of 1-3 nM). Protein concentrations were adjusted to provide linear product formation for at least 30 min of incubation. […] The beads were left to settle overnight and the SPA signals were counted in a 96-well top counter-NXT (Packard). […]

[2] = tested on: HXB2-strain of HIV in MT4 cells; experiment: Antiviral assay: protection of HIV-infected MT4 cells from cell death (MTT); format: cell-based; conditions: read-out: Antiviral Assay IC50
Procedure: Antiviral Assay Method Anti-HIV antiviral activity was assessed using an adaptation of the method of Pawls et al. (J. Virol Methods 1988 20:309-321). The method is based on the ability of compounds to protect HIV-infected T lymphoblastoid cells (MT4 cells) from cell-death mediated by the infection. The endpoint of the assay was calculated as the concentration of compound at which the cell viability of the culture was preserved by 50% (‘50% inhibitory concentration’, IC50). The cell viability of a culture was determined by the uptake of soluble, yellow 3-[4,5-dimethylthiazol-2-yl]-2,5-diphenyltetrazolium bromide (MTT) and its reduction to a purple insoluble formazan salt. After solubilization, spectrophotometric methods were employed to measure the amount of formazan product. MT4 cells were prepared to be in logarithmic-phase growth and a total of 2×10^6 cells infected with the HXB2-strain of HIV at a multiplicity of 0.0001 infectious units of virus per cell in a total volume of between 200-500 microliters. […] When the formazan deposit was fully solubilized by further mixing, the absorbance (OD) of the cultures was measured at 540 nm and 690 nm wavelength (690 nm readings were used as blanks for artifacts between wells). The percent protection for each treated culture was then calculated from the equation: [formula] […]

Row | Compound | pIC50 [1] | pIC50 ([2]; Human immunodeficiency virus 1, 120 h, MT4 cells infected with HXB2-strain of HIV, 5 days, MTT viability) | melting point [°C] | pIC50 ([2]; Human immunodeficiency virus 1, HXB2, MT4, 120 h)
1 | N#Cc1cc(Cl)cc(C(=O)c2cc(Cl)ccc2OCc2n[nH]c3ncccc23)c1 [Compound I-2, 3-Chloro-5-[5-chloro-2-(1H-pyrazolo[3,4-b]pyridin-3-ylmethoxy)-benzoyl]-benzonitrile] | 7.61 | 8.43 | 194.3 to 195.9 | –
2 | N#Cc1cc(Cl)cc(Oc2c(Cl)ccc(OCc3n[nH]c4ncccc34)c2F)c1 [Compound I-3, 3-Chloro-5-[6-chloro-2-fluoro-3-(1H-pyrazolo[3,4-b]pyridin-3-ylmethoxy)-phenoxy]-benzonitrile, trifluoroacetate salt] | 7.96 | – | – | 8.10
3 | N#Cc1cc(Cl)cc(C(=O)c2c(CNc3n[nH]c4ncccc34)ccc(Br)c2F)c1 [Compound I-9] | – | – | 214 to 215 | –
